# Assay results published in EP0885006B1, “PHARMACEUTICAL COMPOSITION ENABLING TO INHIBIT CANCER METASTASIS FORMATION CONTAINING N-ACETYL-CYSTEINE AND DOXORUBICIN” (ZAMBON GROUP S.p.A., priority 1996, dated 1997).
# Several values for one entry are separate records, joined by “and”; a condition that tells them apart may be missing. Equal entries are not always repeated.
# Tested on: B16-BL6 murine melanoma cells
# Assay: Tumorigenicity and "spontaneous" metastasis assay (s.c. footpad injection of cancer cells)
# Type: in vivo, female C57BL/6 mice
# Conditions: for Survival (days) (mean ± ES) / Lung metastases Frequency (%) / Lung metastases No. (mean ± ES) / Primary tumors Frequency (%) / Primary tumors Weight g (mean ± ES) / Local recurrencies Frequency (%) / Local recurrencies Weight g (mean ± ES): DOX+NAC same doses; for reduction in the number of lung metastases with respect to controls / reduction in the weight of primary tumors with respect to controls / weight of primary tumors 4 weeks after injection of cancer cells (effect in words) / reduction in the weight of local recurrencies with respect to controls: combined same doses
# Method: DOX was used in the form of commercial injectable product, containing 10 mg of drug per vial (Adriblastina®, Farmitalia - Carlo Erba, Milano, Italia), to be dissolved in distilled water when injected. In the experiments wherein the oral administration was provided, NAC was used in the form of commercial product containing 200 mg of NAC per dosage (Fluimucil®, Zambon Italia, Vicenza), directly dissolved in the drinking water of mice. In the experiments wherein the parenteral (i.p. or i.v.) administration of NAC was foreseen, a 98% pure laboratory reagent (Sigma Chemical Co., St. Louis, MO, U.S.A.) was used, dissolved in a phosphate buffer (PBS), pH 7.4, and furtherly brought to neutrality with NaOH 0.1 N ("spontaneous" metastasis assays) or in NaCl 0.15 M, taking the solution to pH 7.0 (experimental metastasis assays).
# A total of 385 adult mice was used (Charles River, Calco, Como, Italia) of which 196 female nude (CD-1)BR mice, aged 7 weeks, average weight of 25 g and 189 female C57BL/6 mice aged 6-8 weeks, average weight of 20 g, used in the experimental metastasis assays and in those of "spontaneous" metastases respectively. The (CD-1)BR mice were housed in sterile cages with filtering cover, in a number of 3 animals per cage, at a room temperature of 26-28°C, with a relative humidity of 55%, a ventilation accounting for 12-15 air/h renewals and a 12 hours day/night cycle; the C57BL/6 mice were stabulated in a number of 5 animals per cage, at a temperature of 25-27°C, with a relative humidity of 50% and a 12 hours day/night cycle. The (CD-1)BR mice received a special diet sterilized under vacuum (Mucedola S.r.L, Settimo Milanese, Milano, Italia) and sterilized drinking water; the C57BL/6 mice received a standard rodent diet (MIL Topi e Ratti, Morini, S. Polo d'Enza, Reggio Emilia, Italia) and drinking water ad libitum throughout the duration of the experiments. Within the experiments wherein the sacrifice of mice was foreseen at a scheduled time, killing was carried out by means of ethyl ether anaesthesia and subsequent cervical dislocation. The stabulation and all the animal treatments were carried out in accordance with the national and Community guidelines (D.L. 27.01.1992 N. 116; 86/609/EEC Directive).
# In this kind of experiment, B16-BL6 murine melanoma cells were injected s.c. in the footpad of the right hind leg (5 x 10^5 cells/mouse in experiment #5, 2 x 10^5 cells/mouse in experiments #6, #7 and #8).
# With such a technique a primary tumor is formed in the side of injection, from which starts the spread of metastases to the lungs.
# Also in these experiments 4 groups were taken into consideration. In all the experiments NAC was administered with drinking water, at a dose of 2 g/kg body weight, starting 48-72 hours before injection of cancer cells and continuing until the end of each experiment. In experiment #5 DOX was administered by i.p. route (2 mg/kg body weight), 24 hours after injection of cancer cells. In experiments #6, #7 and #8 DOX was instead administered by i.v. route (10 mg/kg body weight), 24 hours (#6 and #7) or 7 days (#8) after injection of cancer cells.
# In experiments #5, #7 and #8 mice were maintained until spontaneous death, so as to have indications also about the effect of treatment on survival. Both the primary tumors (frequency and weight) and the lung metastases (frequency and number) were therefore evaluated at the time of death.
# In experiment #6 instead, 4 weeks after injection of the cancer cells, the leg carrying the primary tumor was removed. Further 4 weeks later the animals were killed, the tumors which gave recurrencies in the leg stump were excised and weighed, and the lung metastases were scored.
# Four additional experiments, two of which partially overlapping (#7 and #8) were designed in order to evaluate the effects of NAC and DOX, individually or in combination, on the formation of local primary tumors and on the subsequent spread of lung metastases. […]
# [1] = experiment #5, 5 x 10^5 cells/mouse, DOX 2 mg/kg i.p. +24h, NAC 2 g/kg p.o. -48 h/end
# [2] = experiment #5, 5 x 10^5 cells/mouse, DOX 2 mg/kg i.p. +24h, NAC 2 g/kg p.o. -48 h/end, at spontaneous death
# [3] = experiment #5, DOX 2 mg/kg i.p. +24 h, NAC 2 g/kg p.o.
# [4] = experiment #6, 2 x 10^5 cells/mouse, DOX 10 mg/kg i.v. +24h, NAC 2 g/kg p.o. -48 h/56 days, leg removed 4 weeks after cells
# [5] = experiment #6, 2 x 10^5 cells/mouse, DOX 10 mg/kg i.v. +24h, NAC 2 g/kg p.o. -48 h/56 days, sacrifice at 8 weeks
# [6] = experiment #6, DOX 10 mg/kg +24 h, NAC 2 g/kg p.o.
# [7] = experiment #6, DOX 10 mg/kg +24 h, NAC 2 g/kg p.o., 4 weeks
# [8] = experiment #6, DOX 10 mg/kg +24 h, NAC 2 g/kg p.o., 8 weeks
# [9] = experiment #7 (NAC group common to #7/8), DOX 10 mg/kg i.v. +24 h, NAC 2 g/kg p.o.
# [10] = experiment #7, 2 x 10^5 cells/mouse, DOX 10 mg/kg i.v. +24h, NAC 2 g/kg p.o. -72 h/end
# [11] = experiment #7, 2 x 10^5 cells/mouse, DOX 10 mg/kg i.v. +24h, NAC 2 g/kg p.o. -72 h/end, at spontaneous death
# [12] = experiment #8, 2 x 10^5 cells/mouse, DOX 10 mg/kg i.v. +7 gg. (7 days), NAC 2 g/kg p.o. -72 h/end
# [13] = experiment #8, 2 x 10^5 cells/mouse, DOX 10 mg/kg i.v. +7 gg. (7 days), NAC 2 g/kg p.o. -72 h/end, at spontaneous death
Compound,Survival (days) (mean ± ES) [1],Lung metastases Frequency (%) [2],Lung metastases No. (mean ± ES) [2],Primary tumors Frequency (%) [2],Primary tumors Weight g (mean ± ES) [2],weight of primary tumors (effect in words) [3],reduction in the number of lung metastases with respect to controls [3],reduction in the weight of primary tumors with respect to controls [3],Primary tumors Frequency (%) [4],Primary tumors Weight g (mean ± ES) [4],Local recurrencies Frequency (%) [5],Local recurrencies Weight g (mean ± ES) [5],Lung metastases Frequency (%) [5],Lung metastases No. (mean ± ES) [5],weight of primary tumors 4 weeks after injection of cancer cells (effect in words) [6],reduction in the weight of primary tumors with respect to controls [7],reduction in the number of lung metastases with respect to controls [8],reduction in the weight of local recurrencies with respect to controls [8],reduction in the number of lung metastases with respect to controls [9],Survival (days) (mean ± ES) [10],also measured
"COc1cccc2c1C(=O)c1c(O)c3c(c(O)c1C2=O)C[C@@](O)(C(=O)CO)C[C@@H]3O[C@H]1C[C@H](N)[C@H](O)[C@H](C)O1 [DOX, Doxorubicin]",31.2 ± 4.7 days,100.0%,10.0 ± 6.4 No.,100.0%,3.0 ± 1.3 g,did not decrease to a significant extent,6 fold and 6.0 fold,1.3 fold,92.3%,0.21 ± 0.05 g,69.2%,2.2 ± 0.7 g,75.0%,32.6 ± 12.2 No.,not affected,1.4 fold,0.7 fold,1.1 fold,0.9 fold,51.3 ± 1.9 days,"Lung metastases Frequency (%) [11]: 76.9%; Lung metastases No. (mean ± ES) [11]: 23.0 ± 10.0 No.; Primary tumors Frequency (%) [11]: 100.0%; Primary tumors Weight g (mean ± ES) [11]: 2.2 ± 0.6 g; survival (effect in words) (experiment #7, DOX 10 mg/kg i.v. 24 hours after injection of cancer cells): prolonged survival; Survival (days) (mean ± ES) [12]: 49.0 ± 2.8 days; Lung metastases Frequency (%) [13]: 63.6%; Lung metastases No. (mean ± ES) [13]: 12.6 ± 9.0 No.; Primary tumors Frequency (%) [13]: 100.0%; Primary tumors Weight g (mean ± ES) [13]: 2.3 ± 0.6 g; survival curves and mean survival time (effect in words) (experiment #8, DOX 10 mg/kg i.v. 7 days after injection of cancer cells, NAC 2 g/kg p.o.): did not affect the survival curves nor the mean survival time"
"CC(=O)N[C@@H](CS)C(=O)O [NAC, N-acetyl-cysteine]",32.2 ± 2.5 days,83.3%,8.3 ± 6.8 No.,100.0%,1.9 ± 0.4 g,more than halved,7.2 fold,2.1 fold,93.3%,0.28 ± 0.04 g,53.3%,2.8 ± 0.8 g,45.5%,12.9 ± 7.8 No.,not affected,1.0 fold,1.6 fold,0.9 fold,2.1 fold,60.1 ± 3.7 days,"Lung metastases Frequency (%) [11]: 18.2%; Lung metastases No. (mean ± ES) [11]: 9.5 ± 8.3 No.; Primary tumors Frequency (%) [11]: 100.0%; Primary tumors Weight g (mean ± ES) [11]: 1.9 ± 0.6 g; Survival (days) (mean ± ES) [12]: 60.1 ± 3.7 days; Lung metastases Frequency (%) [13]: 18.2%; Lung metastases No. (mean ± ES) [13]: 9.5 ± 8.3 No.; Primary tumors Frequency (%) [13]: 100.0%; Primary tumors Weight g (mean ± ES) [13]: 1.9 ± 0.6 g; inhibition in the frequency of lung metastases with respect to controls (experiments #7/8, NAC 2 g/kg p.o.): 4.8 fold; survival of mice (effect in words) (experiments #7 and #8, NAC 2 g/kg p.o., DOX 10 mg/kg i.v. +24 h or +7 days): enhanced remarkably the survival"
